In the supplement of paper PMC10307832:

Columns and labels:
Assay in all cases: relative viability (nuclei count vs DMSO), 5 days (fraction); higher = more cells survive
GW-2580 + Luminespib = compound: COC1=CC=C(C=C1)COC2=C(C=C(C=C2)CC3=CN=C(N=C3N)N)OC [GW-2580] + CCNC(=O)c1noc(-c2cc(C(C)C)c(O)cc2O)c1-c1ccc(CN2CCOCC2)cc1 [Luminespib] (partner 0.01 µM)
How it was run: (§1)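 Values are medians from duplicate plates. Each reflects relative viability, defined as the nuclei count of treated wells over that of vehicle wells. Lung cancer cell lines in 1536-well plates were pin-tool dosed one day after seeding with one drug alone or with a fixed anchor-drug dose plus five library-drug doses (not always all listed) in √10 steps, then fixed, stained and imaged at 4× after 5 days.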

GW-2580 + Dasatinib = compound: COC1=CC=C(C=C1)COC2=C(C=C(C=C2)CC3=CN=C(N=C3N)N)OC [GW-2580] + Cc1nc(Nc2ncc(C(=O)Nc3c(C)cccc3Cl)s2)cc(N2CCN(CCO)CC2)n1 [Dasatinib] (partner 0.075 µM)
How it was run: as §1

Fedratinib + Alpelisib = compound: Cc1cnc(Nc2ccc(OCCN3CCCC3)cc2)nc1Nc1cccc(S(=O)(=O)NC(C)(C)C)c1 [Fedratinib] + Cc1nc(NC(=O)N2CCC[C@H]2C(N)=O)sc1-c1ccnc(C(C)(C)C(F)(F)F)c1 [Alpelisib] (partner 2 µM)
How it was run: as §1

Fedratinib + Vorinostat = compound: Cc1cnc(Nc2ccc(OCCN3CCCC3)cc2)nc1Nc1cccc(S(=O)(=O)NC(C)(C)C)c1 [Fedratinib] + O=C(CCCCCCC(=O)Nc1ccccc1)NO [Vorinostat] (partner 1 µM)
How it was run: as §1

Row | Cell Line | relative viability (GW-2580 + Luminespib; first compound 0.08 µM) | relative viability (GW-2580 + Luminespib; first compound 0.8 µM) | relative viability (GW-2580 + Luminespib; first compound 2.53 µM) | relative viability (GW-2580 + Luminespib; first compound 8 µM) | relative viability (GW-2580 + Dasatinib; first compound 0.08 µM) | relative viability (GW-2580 + Dasatinib; first compound 0.8 µM) | relative viability (GW-2580 + Dasatinib; first compound 2.53 µM) | relative viability (GW-2580 + Dasatinib; first compound 8 µM) | relative viability (Fedratinib + Alpelisib; first compound 0.1 µM) | relative viability (Fedratinib + Alpelisib; first compound 0.3162 µM) | relative viability (Fedratinib + Alpelisib; first compound 1 µM) | relative viability (Fedratinib + Vorinostat; first compound 0.1 µM) | relative viability (Fedratinib + Vorinostat; first compound 0.3162 µM) | relative viability (Fedratinib + Vorinostat; first compound 1 µM)
1 | NCI-H2405 | 0.727 | 0.604 | 0.671 | 0.586 | 0.203 | 0.205 | 0.222 | 0.213 | 0.626 | 0.824 | 0.698 | 0.946 | 0.982 | 0.814
2 | NCI-H1755 | 0.697 | 0.401 | 0.332 | 0.45 | 0.488 | 0.553 | 0.388 | 0.396 | 0.969 | 0.886 | 0.82 | 0.761 | 0.786 | 0.705
3 | LOU-NH91 | 0.413 | 0.34 | 0.319 | 0.356 | 0.555 | 0.719 | 0.517 | 0.553 | 0.615 | 0.785 | 0.676 | 0.777 | 1.09 | 0.782
4 | NCI-H3122 | 0.0808 | 0.0609 | 0.0868 | 0.0798 | 0.947 | 1.01 | 0.655 | 0.812 | 0.833 | 0.682 | 0.7 | 1.07 | 1 | 0.988
5 | HCC-827 | 0.92 | 0.762 | 0.508 | 0.56 | 0.309 | 0.413 | 0.283 | 0.245 | 1.04 | 0.95 | 1.02 | 0.862 | 0.841 | 0.75
6 | SK-LU-1 | 0.206 | 0.183 | 0.212 | 0.206 | 0.178 | 0.207 | 0.149 | 0.167 |  | 0.93 | 0.701 | 0.766 | 0.786 | 0.614
7 | NCI-H1975 | 0.186 | 0.5 | 0.162 | 0.193 | 0.406 | 0.388 | 0.379 | 0.315 | 0.613 | 0.692 | 0.467 | 0.744 | 0.702 | 0.603
